What was measured:
[1] = tested on: Rattus norvegicus; assay: Downregulation of OPN expression in 1% ethylene glycol-treated Rattus norvegicus Sprague-Dawley (rat) kidney at 0.8 mg/day, po after 14 days by ELISA (reference value: 75 +/- 13.5 %); assay type: functional
[2] = tested on: Rattus norvegicus; assay: Downregulation of OPN expression in 1% ethylene glycol-treated Rattus norvegicus Sprague-Dawley (rat) kidney at 2 mg/day, po after 14 days by ELISA (reference value: 75 +/- 13.5 %); assay type: functional
[3] = tested on: Rattus norvegicus; assay: Downregulation of OPN expression in 1% ethylene glycol-treated Rattus norvegicus Sprague-Dawley (rat) kidney at 3 mg/day, po after 14 days by ELISA (reference value: 75 +/- 13.5 %); assay type: functional
[4] = tested on: Rattus norvegicus; assay: Downregulation of OPN expression in 1% ethylene glycol-treated Rattus norvegicus Sprague-Dawley (rat) kidney at 4 mg/day, po after 14 days by ELISA (reference value: 75 +/- 13.5 %); assay type: functional
[5] = organism: Rattus norvegicus; assay: Renoprotective activity in Rattus norvegicus Sprague-Dawley (rat) kidney assessed as decrease in oxalate excretion in urine at 4 mg/day after 14 days in presence of water (reference value: 1.11 +/- 0.06 uM); assay type: functional
[6] = organism: Rattus norvegicus; assay: Renoprotective activity in 1% ethylene glycol-treated Rattus norvegicus Sprague-Dawley (rat) kidney assessed as decrease in oxalate excretion in urine at 0.4 mg/day after 14 days (reference value: 4.07 +/- 0.05 uM); assay type: functional
[7] = organism: Rattus norvegicus; assay: Renoprotective activity in 1% ethylene glycol-treated Rattus norvegicus Sprague-Dawley (rat) kidney assessed as decrease in oxalate excretion in urine at 0.8 mg/day after 14 days (reference value: 4.07 +/- 0.05 uM); assay type: functional
[8] = organism: Rattus norvegicus; assay: Renoprotective activity in 1% ethylene glycol-treated Rattus norvegicus Sprague-Dawley (rat) kidney assessed as decrease in oxalate excretion in urine at 2 mg/day after 14 days (reference value: 4.07 +/- 0.05 uM); assay type: functional
[9] = organism: Rattus norvegicus; assay: Renoprotective activity in 1% ethylene glycol-treated Rattus norvegicus Sprague-Dawley (rat) kidney assessed as decrease in oxalate excretion in urine at 3 mg/day after 14 days (reference value: 4.07 +/- 0.05 uM); assay type: functional
[10] = organism: Rattus norvegicus; assay: Renoprotective activity in 1% ethylene glycol-treated Rattus norvegicus Sprague-Dawley (rat) kidney assessed as decrease in oxalate excretion in urine at 4 mg/day after 14 days (reference value: 4.07 +/- 0.05 uM); assay type: functional
[11] = tested on: Rattus norvegicus; assay: Downregulation of OPN expression in 1% ethylene glycol-treated po dosed Rattus norvegicus Sprague-Dawley (rat) kidney at 0.4 mg/day, po after 14 days by ELISA; assay type: functional, organism-based
[12] = tested on: Rattus norvegicus; assay: Downregulation of OPN expression in Rattus norvegicus Sprague-Dawley (rat) kidney at 0.4 mg/day, po after 14 days by ELISA in presence of water (reference value: 10 +/- 3 %); assay type: functional
[13] = tested on: Rattus norvegicus; assay: Downregulation of OPN expression in 1% ethylene glycol-treated Rattus norvegicus Sprague-Dawley (rat) kidney at 0.4 mg/day, po after 14 days by ELISA (reference value: 75 +/- 13.5 %); assay type: functional

CC1=CC(=O)c2ccccc2C1=O [MENADIONE] gave an Activity [1] of 55%, an Activity [2] of 35% and an Activity [3] of 30%. For the same molecule, the Activity [4] was 20%, the Activity [5] was 1.02 µM and the Activity [6] was 3.44 µM. It also gave an Activity [7] of 3.04 µM, an Activity [8] of 2.55 µM and an Activity [9] of 2.01 µM. For the same molecule, the Activity [10] was 1.49 µM, the Activity [11] was “Dose-dependent effect” and the Activity [12] was 11%. It also gave an Activity [13] of 70%.

Reference: ChEMBL document CHEMBL3046064, “Expression of OPN in rat kidney with different doses of vitamin K3 injection” (2007)
